These are literature values, as cited in PMC8583718, “Transient Fluorescence Labeling: Low Affinity—High Benefits” (International Journal of Molecular Sciences, 2021).

“And” between values parts separate entries of the source, which are not always exact repeats. Identical values can stand only once. Like-named read-outs stand apart in the source and are kept apart here.

Series [1] concerns the target UnaG. Details: method as in PMID 23768684. The following applies: bilirubin–UnaG.
In series [2] the test system is Y-FAST. Details: method as in PMID 26711992.
The target in series [3] is mFAP1. Details: method as in PMID 30209393. Particulars: mFAP1 with DFHBI; read-out: dissociation constant.
For series [4], the target named is dimeric transcription factors LmrR and RamR. Details: method as in PMID 33913682. Particulars: modified LmrR and RamR.
Series [5] addresses mFAP2. Details: method as in PMID 30209393. Particulars: mFAP2 with DFHBI; read-out: dissociation constant.
Series [6] concerns G-actin. Details: method as in PMID 18536722. Particulars: G-actin compared with F-actin.
In series [7] the target is F-actin. Details: method as in PMID 18536722.
For series [8], the target named is DNA. Details: method as in PMID 26423723. Particulars: staining of DNA.
The test system of series [9] is actin structures. Details: method as in PMID 26317264. Particulars: compared among actin tags.
Series [10] addresses microtubules. Details: method as in PMID 12773533. The following applies: interaction with microtubules.
The target of series [11] is microtubules. Details: method as in PMID 29662074. The following applies: interaction with microtubules.
Series [12] has as its target F-actin. Details: method as in PMID 15826935. The following applies: binding to F-actin.
Series [13] addresses protein–fluorogen complexes. Particulars: UnaG system.

Turning to `C=CC1=C(C)/C(=C/c2[nH]c(Cc3[nH]c(/C=C4\NC(=O)C(C)=C4C=C)c(C)c3CCC(=O)O)c(CCC(=O)O)c2C)NC1=O` [bilirubin], in series [1], the Kd was 0.098 nM.
Turning to `Cc1cc(C=C2SC(=S)NC2=O)ccc1O` [HMBR, 4-hydroxy-3-methylbenzylidene rhodanine], the “residence time in the complex” value in series [2] (25 °C, HMBR–Y-FAST) is recorded as 160 ms. For the same molecule, the Kd in series [2] (HMBR in complex with Y-FAST) was about 130 nM.
For the molecule `CC1=N/C(=C\c2cc(F)c(O)c(F)c2)C(=O)N1C` [DFHBI, 3,5-difluoro-4-hydroxybenzylidene imidazolinone], the Kd in [3] is 180 nM; in series [5], 560 nM. The Dissociation constants entry in [4] is listed as “submicromoles to several micromoles”.
Take “Lifeact: short (17 amino acids) fragment of actin filament-binding protein Abp140 from Saccharomyces cerevisiae”: the “higher affinity to G-actin” value in series [6] is 10 fold. Also, the Kd in series [7] (affinity to F-actin) is ~2200 nM and 2200 nM. In addition, in [7] (on F-actin), the exchange of probes is at most 0.4 s.
In the case of `CN1CCN(c2ccc3nc(-c4ccc5nc(-c6ccc(OCCCCNC(=O)c7ccc(C(=O)[O-])c(C8=C9C=CC(=[N+](C)C)C=C9[Si](C)(C)c9cc(N(C)C)ccc98)c7)cc6)[nH]c5c4)[nH]c3c2)CC1` [SiR-Hoechst], in [8], the Kd was 8400 nM.
Turning to “F-tractin: residues 10–52 of rat inositol 1,4,5-triphosphate-3-kinase A (MARPRGAGPCSPGLERAPRRSVGELRLLFEARCAAVAAAAAAG; UniProt P17105 10-52, looked up, fragment)”, in series [9], the exchange rate entry is “highest exchange rate among all actin tags”.

B1: MAP4: microtubule-associated protein (protein, UniProt P27816 2-1152, looked up)
Microtubule-associated …: ADLSLADALTEPSPDIEGEIKRDFIATLEAEAFDDVVGETVGKTDYIPLLDVDEKTGNSESKKKPCSETSQIEDTPSSKPTLLANGGHGVEGSDTTGSPTEFLEEKMAYQEYPNSQNWPEDTNFCFQPEQVVDPIQTDPFKMYHDDDLADLVFPSSATADTSIFAGQNDPLKDSYGMSPCNTAVVPQGWSVEALNSPHSESFVSPEAVAEPPQPTAVPLELAKEIEMASEERPPAQALEIMMGLKTTDMAPSKETEMALAKDMALATKTEVALAKDMESPTKLDVTLAKDMQPSMESDMALVKDMELPTEKEVALVKDVRWPTETDVSSAKNVVLPTETEVAPAKDVTLLKETERASPIKMDLAPSKDMGPPKENKKETERASPIKMDLAPSKDMGPPKENKIVPAKDLVLLSEIEVAQANDIISSTEISSAEKVALSSETEVALARDMTLPPETNVILTKDKALPLEAEVAPVKDMAQLPETEIAPAKDVAPSTVKEVGLLKDMSPLSETEMALGKDVTPPPETEVVLIKNVCLPPEMEVALTEDQVPALKTEAPLAKDGVLTLANNVTPAKDVPPLSETEATPVPIKDMEIAQTQKGISEDSHLESLQDVGQSAAPTFMISPETVTGTGKKCSLPAEEDSVLEKLGERKPCNSQPSELSSETSGIARPEEGRPVVSGTGNDITTPPNKELPPSPEKKTKPLATTQPAKTSTSKAKTQPTSLPKQPAPTTIGGLNKKPMSLASGLVPAAPPKRPAVASARPSILPSKDVKPKPIADAKAPEKRASPSKPASAPASRSGSKSTQTVAKTTTAAAVASTGPSSRSPSTLLPKKPTAIKTEGKPAEVKKMTAKSVPADLSRPKSTSTSSMKKTTTLSGTAPAAGVVPSRVKATPMPSRPSTTPFIDKKPTSAKPSSTTPRLSRLATNTSAPDLKNVRSKVGSTENIKHQPGGGRAKVEKKTEAAATTRKPESNAVTKTAGPIASAQKQPAGKVQIVSKKVSYSHIQSKCGSKDNIKHVPGGGNVQIQNKKVDISKVSSKCGSKANIKHKPGGGDVKIESQKLNFKEKAQAKVGSLDNVGHLPAGGAVKTEGGGSEAPLCPGPPAGEEPAISEAAPEAGAPTSASGLNGHPTLSGGGDQREAQTLDSQIQETSI
As for B1, the Kd in [10] is about 300 nM.

B2: MAP7: microtubule-associated protein (protein, UniProt Q14244 2-749, looked up)
Ensconsin: AELGAGGDGHRGGDGAVRSETAPDSYKVQDKKNASSRPASAISGQNNNHSGNKPDPPPVLRVDDRQRLARERREEREKQLAAREIVWLEREERARQHYEKHLEERKKRLEEQRQKEERRRAAVEEKRRQRLEEDKERHEAVVRRTMERSQKPKQKHNRWSWGGSLHGSPSIHSADPDRRSVSTMNLSKYVDPVISKRLSSSSATLLNSPDRARRLQLSPWESSVVNRLLTPTHSFLARSKSTAALSGEAASCSPIIMPYKAAHSRNSMDRPKLFVTPPEGSSRRRIIHGTASYKKERERENVLFLTSGTRRAVSPSNPKARQPARSRLWLPSKSLPHLPGTPRPTSSLPPGSVKAAPAQVRPPSPGNIRPVKREVKVEPEKKDPEKEPQKVANEPSLKGRAPLVKVEEATVEERTPAEPEVGPAAPAMAPAPASAPAPASAPAPAPVPTPAMVSAPSSTVNASASVKTSAGTTDPEEATRLLAEKRRLAREQREKEERERREQEELERQKREELAQRVAEERTTRREEESRRLEAEQAREKEEQLQRQAEERALREREEAERAQRQKEEEARVREEAERVRQEREKHFQREEQERLERKKRLEEIMKRTRRTEATDKKTSDQRNGDIAKGALTGGTEVSALPCTTNAPGNGKPVGSPHVVTSHQSKVTVESTPDLEKQPNENGVSVQNENFEEIINLPIGSKPSRLDVTNSESPEIPLNPILAFDDEGTLGPLPQVDGVQTQQTAEVI
On to B2, for which the Kd in series [11] was about 470 nM.

B3: Utr261: first 261 amino acid residues of utrophin, the filament-crosslinking protein (protein, UniProt P46939 1-261, looked up, fragment)
chain: MAKYGEHEASPDNGQNEFSDIIKSRSDEHNDVQKKTFTKWINARFSKSGKPPINDMFTDLKDGRKLLDLLEGLTGTSLPKERGSTRVHALNNVNRVLQVLHQNNVELVNIGGTDIVDGNHKLTLGLLWSIILHWQVKDVMKDVMSDLQQTNSEKILLSWVRQTTRPYSQVNVLNFTTSWTDGLAFNAVLHRHKPDLFSWDKVVKMSPIERLEHAFSKAQTYLGIEKLLDPEDVAVQLPDKKSIIMYLTSLFEVLPQQVTID
For B3, the Kd in series [12] was 18600 nM.

B4: UnaG: fluorogen-activating protein from Japanese eel muscle that reversibly binds bilirubin (protein, UniProt P0DM59 1-139, looked up)
Bilirubin-inducible …: MVEKFVGTWKIADSHNFGEYLKAIGAPKELSDGGDATTPTLYISQKDGDKMTVKIENGPPTFLDTQVKFKLGEEFDEFPSDRRKGVKSVVNLVGEKLVYVQKWDGKETTYVREIKDGKLVVTLTMGDVVAVRSYRRATE
On to B4, for which the Kd in [13] is 0.098 nM.
